Source: ChEMBL document CHEMBL1201862, “PubChem BioAssay data set” (2004)
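The compound was tested at five concentrations on cells cultured in 96-well plates, with a 48-hour exposure period. Here, GI50 denotes the concentration required for 50% inhibition of growth.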 Activity calls are given as the source filed them. Cut-off read from the data, not from the text of the source: active = GI50 up to about 1.1 µM and inactive = higher.

Columns and labels:
Assay in all cases: growth of human tumour cells (NCI), 48 h
786-0 = test system: 786-0
A549 = test system: A549
ACHN = test system: ACHN
BT-549 = test system: BT-549
CAKI-1 = test system: CAKI-1
CCRF-CEM = test system: CCRF-CEM
COLO 205 = test system: COLO 205
DU-145 = test system: DU-145
EKVX = test system: EKVX
HCC 2998 = test system: HCC 2998
HCT-116 = test system: HCT-116
HCT-15 = test system: HCT-15
HL-60 = test system: HL-60
HOP-62 = test system: HOP-62
HOP-92 = test system: HOP-92
HT-29 = test system: HT-29
Hs-578T = test system: Hs-578T
IGROV-1 = test system: IGROV-1
K562 = test system: K562
KM12 = test system: KM12
LOX IMVI = test system: LOX IMVI
M14 = test system: M14
MCF7 = test system: MCF7
MDA-MB-231 = test system: MDA-MB-231
MDA-MB-435 = test system: MDA-MB-435
MDA-N = test system: MDA-N
MOLT-4 = test system: MOLT-4
Malme-3M = test system: Malme-3M
NCI-H226 = test system: NCI-H226
NCI-H23 = test system: NCI-H23
NCI-H522 = test system: NCI-H522
NCI/ADR-RES = test system: NCI/ADR-RES
OVCAR-3 = test system: OVCAR-3
OVCAR-4 = test system: OVCAR-4
OVCAR-5 = test system: OVCAR-5
OVCAR-8 = test system: OVCAR-8
PC-3 = test system: PC-3
RPMI-8226 = test system: RPMI-8226
RXF 393 = test system: RXF 393
SF-268 = test system: SF-268
SF-295 = test system: SF-295
SF-539 = test system: SF-539
SK-MEL-28 = test system: SK-MEL-28
SK-MEL-2 = test system: SK-MEL-2
SK-MEL-5 = test system: SK-MEL-5
SK-OV-3 = test system: SK-OV-3
SN12C = test system: SN12C
SNB-19 = test system: SNB-19
SNB-75 = test system: SNB-75
SR = test system: SR
SW-620 = test system: SW-620
T47D = test system: T47D
TK-10 = test system: TK-10
U-251 = test system: U-251
UACC-257 = test system: UACC-257
UACC-62 = test system: UACC-62
UO-31 = test system: UO-31

Structure (SMILES): CCOC(=O)CC1C(O)C(=O)N(C)C1c1ccccc1 (configuration not stated)
- GI50 (786-0): > 100 µM (inactive)
- GI50 (A549): > 100 µM (inactive)
- GI50 (ACHN): > 100 µM (inactive)
- GI50 (BT-549): > 100 µM (inactive)
- GI50 (CAKI-1): > 100 µM (inactive)
- GI50 (CCRF-CEM): > 100 µM (inactive)
- GI50 (COLO 205): > 100 µM (inactive)
- GI50 (DU-145): > 100 µM (inactive)
- GI50 (EKVX): > 100 µM (inactive)
- GI50 (HCC 2998): > 100 µM (inactive)
- GI50 (HCT-116): > 100 µM (inactive)
- GI50 (HCT-15): > 100 µM
- GI50 (HL-60): > 100 µM (inactive)
- GI50 (HOP-62): > 100 µM (inactive)
- GI50 (HOP-92): > 100 µM (inactive)
- GI50 (HT-29): > 100 µM (inactive)
- GI50 (Hs-578T): > 100 µM (inactive)
- GI50 (IGROV-1): > 100 µM (inactive)
- GI50 (K562): > 100 µM (inactive)
- GI50 (KM12): > 100 µM (inactive)
- GI50 (LOX IMVI): > 100 µM (inactive)
- GI50 (M14): > 100 µM (inactive)
- GI50 (MCF7): > 100 µM (inactive)
- GI50 (MDA-MB-231): > 100 µM (inactive)
- GI50 (MDA-MB-435): > 100 µM (inactive)
- GI50 (MDA-N): > 100 µM (inactive)
- GI50 (MOLT-4): > 100 µM (inactive)
- GI50 (Malme-3M): > 100 µM (inactive)
- GI50 (NCI-H226): > 100 µM (inactive)
- GI50 (NCI-H23): > 100 µM (inactive)
- GI50 (NCI-H522): > 100 µM (inactive)
- GI50 (NCI/ADR-RES): > 100 µM (inactive)
- GI50 (OVCAR-3): > 100 µM (inactive)
- GI50 (OVCAR-4): > 100 µM (inactive)
- GI50 (OVCAR-5): > 100 µM (inactive)
- GI50 (OVCAR-8): > 100 µM (inactive)
- GI50 (PC-3): > 100 µM (inactive)
- GI50 (RPMI-8226): > 100 µM (inactive)
- GI50 (RXF 393): > 100 µM (inactive)
- GI50 (SF-268): > 100 µM (inactive)
- GI50 (SF-295): > 100 µM (inactive)
- GI50 (SF-539): > 100 µM (inactive)
- GI50 (SK-MEL-28): > 100 µM (inactive)
- GI50 (SK-MEL-2): > 100 µM (inactive)
- GI50 (SK-MEL-5): > 100 µM (inactive)
- GI50 (SK-OV-3): > 100 µM (inactive)
- GI50 (SN12C): > 100 µM (inactive)
- GI50 (SNB-19): > 100 µM (inactive)
- GI50 (SNB-75): > 100 µM (inactive)
- GI50 (SR): > 100 µM (inactive)
- GI50 (SW-620): > 100 µM (inactive)
- GI50 (T47D): > 100 µM (inactive)
- GI50 (TK-10): > 100 µM (inactive)
- GI50 (U-251): > 100 µM (inactive)
- GI50 (UACC-257): > 100 µM (inactive)
- GI50 (UACC-62): > 100 µM (inactive)
- GI50 (UO-31): > 100 µM (inactive)
